Assay results taken from US20230124862A1, “BISMUTH THIOL COMPOUNDS AND COMPOSITIONS AND METHODS OF TREATING MICROBIAL CO-INFECTIONS” (Microbion Corporation, priority 2020, published 2023).
Like-named read-outs stand apart in the source and are kept apart here. Marks after values point to notes of the source that are not given here.

Assays:
[1] = tested on: Candida krusei; experiment: Antifungal broth microdilution (Example 13); type: cell-based; conditions: for MIC: Pichia kudriavzevii
[2] = tested on: B. cepcacia complex (not further speciated); experiment: microbe, parasite or virus in culture; type: cell-based, Burkholderia cepacia complex; conditions: Burkholderia cepacia
[3] = tested on: S. aureus; experiment: Broth microdilution MIC (Example 11); type: cell-based, Staphylococcus aureus
[4] = tested on: Aspergillus spp.; experiment: Antifungal broth microdilution (Example 13); type: cell-based, A. niger, A. terreus, A. fumigatus, A. flavus; conditions: for MEC at 48 hr: complete inhibition (MIC0) not observed

Structure (SMILES): CC(S)C(C)S.[Bi] (stereo not drawn) [BisBDT, bismuth-2,3-butanedithiol]
- MIC 24 hr ([1]; C. krusei ATCC 6258, first of two values x/y (footnote b not given, matches MIC2 of Table 107)): 0.5 µg/mL
- MIC 24 hr ([1]; C. krusei ATCC 6258, second of two values x/y (footnote b not given, matches MIC0 of Table 107)): 1 µg/mL
- MIC 48 hr ([1]; C. krusei ATCC 6258, 48 hr, first of two values x/y (footnote b not given, presumably MIC2)): 1 µg/mL
- MIC ([1]; C. krusei MMX 7125, Susceptible, 50% inhibition, read-out: MIC2): 0.5 µg/mL
- MIC ([1]; C. krusei MMX 7125, Susceptible, complete inhibition, read-out: MIC0): 1 µg/mL
- MIC ([1]; C. krusei MMX 7141, Susceptible, 50% inhibition, read-out: MIC2): 1 µg/mL
- MIC ([1]; C. krusei MMX 7141, Susceptible, complete inhibition, read-out: MIC0): 2 µg/mL
- MIC ([1]; C. krusei MMX 7155, Susceptible, 50% inhibition, read-out: MIC2): 0.5 µg/mL
- MIC ([1]; C. krusei MMX 7155, Susceptible, complete inhibition, read-out: MIC0): 1 µg/mL
- MIC ([1]; C. krusei MMX 7563, Susceptible, 50% inhibition, read-out: MIC2): 0.5 µg/mL
- MIC ([1]; C. krusei MMX 7563, Susceptible, complete inhibition, read-out: MIC0): 1 µg/mL
- MIC ([1]; C. krusei MMX 9878, MICA-I, VORI-I, 50% inhibition, read-out: MIC2): 0.5 µg/mL
- MIC ([1]; C. krusei MMX 9878, MICA-I, VORI-I, complete inhibition, read-out: MIC0): 1 µg/mL
- MIC ([1]; […], complete inhibition, read-out: MIC0): 1 µg/mL
- MIC ([1]; read-out: MIC2): 0.5 µg/mL
- MIC ([2]; strain BC 9): 0.5 µg/mL
- MIC ([2]; strain PC 213): 1 µg/mL
- MIC ([3]; S. aureus MMX 5373, MRSA, Lev^R Cip^R CC^R Ery^R Ox^R): ≤0.06 µg/mL
- MIC ([3]; S. aureus MMX 6311, MRSA, Lev^R Cip^R CC^R Ery^R Ox^R): ≤0.06 µg/mL
- MIC ([3]; S. aureus MMX 9204, MRSA, Lev^R Cip^R Ery^R Ox^R): ≤0.06 µg/mL
- MIC ([3]; S. aureus MMX 9205, MRSA, Lev^R Cip^R CC^R Ery^R Ox^R): ≤0.06 µg/mL
- MIC ([3]; Staphylococcus aureus, ATCC 29213 / MSSA): ≤ 0.06 µg/mL
- MIC ([4]; 24 h, A. flavus ATCC 22546, complete inhibition, 24 hr, read-out: MIC0 24 hr): 1 µg/mL
- MIC ([4]; 24 h, A. flavus ATCC 204304, complete inhibition, 24 hr, read-out: MIC0 24 hr): 4 µg/mL
- MIC ([4]; 24 h, A. flavus MMX 7935, complete inhibition, 24 hr, read-out: MIC0 24 hr): 8 µg/mL
- MIC ([4]; 24 h, A. fumigatus ATCC 204305, complete inhibition, 24 hr, read-out: MIC0 24 hr): 8 µg/mL
- MIC ([4]; 24 h, A. fumigatus ATCC MYA-3626, complete inhibition, 24 hr, read-out: MIC0 24 hr): 2 µg/mL
- MIC ([4]; 24 h, A. fumigatus MMX 5934, complete inhibition, 24 hr, read-out: MIC0 24 hr): 2 µg/mL
- MIC ([4]; 24 h, A. fumigatus MMX 5939, complete inhibition, 24 hr, read-out: MIC0 24 hr): 2 µg/mL
- MIC ([4]; 24 h, A. terreus MMX 8229, complete inhibition, 24 hr, read-out: MIC0 24 hr): 0.25 µg/mL
- MIC ([4]; 48 h, A. flavus ATCC 22546, complete inhibition, 48 hr, read-out: MIC0 48 hr): 2 µg/mL
- MIC ([4]; 48 h, A. flavus MMX 7935, complete inhibition, 48 hr, read-out: MIC0 48 hr): 8 µg/mL
- MIC ([4]; 48 h, A. fumigatus ATCC MYA-3626, complete inhibition, 48 hr, read-out: MIC0 48 hr): 4 µg/mL
- MIC ([4]; 48 h, A. fumigatus MMX 5939, 48 hr, cell marked footnote b, read-out: MIC0 48 hr): 4 µg/mL
- MIC ([4]; 48 h, A. terreus MMX 8229, complete inhibition, 48 hr, read-out: MIC0 48 hr): 1 µg/mL
- MEC at 48 hr ([4]; A. flavus ATCC 204304, 48 hr): 4/4^a μg/mL
- MIC 48 hr ([4]; A. flavus ATCC 204304, 48 hr, cells marked footnote c (not given; Table 109 gives the 48 hr results as MEC)): 4^c
- MEC at 48 hr ([4]; A. fumigatus ATCC 204305, 48 hr): 4 µg/mL
- MIC 24 hr ([4]; A. fumigatus ATCC MYA-3626, 24 hr): 2 µg/mL
- MIC 48 hr ([4]; A. fumigatus ATCC MYA-3626, 48 hr): 4 µg/mL
- MEC at 48 hr ([4]; A. fumigatus MMX 5934, 48 hr): 4 µg/mL
- MIC ([4]; A. niger ATCC 29508, complete inhibition, […], read-out: MIC0 48 hr): 2 µg/mL
